Laboratory results published in patent US5948814A, “Genistein for the treatment of cystic fibrosis” (priority 1998, dated 1999).
Like-named read-outs stand apart in the source and are kept apart here.

Tests used:
wt-CFTR = wt-CFTR (Homo sapiens, UniProt P13569); format: cell-based; set-up: expressed in transfected cells
Method: FIGS. 4A and B are graphs showing the variance analysis of macroscopic currents for wt- and ΔF508-CFTR wherein (A) is a plot of variance as a function of mean-current amplitude for NIH/3T3-CFTR(.circle-solid.) and NIH/3T3-ΔF508 (.smallcircle.) cells stimulated with 10 μM forskolin plus 50 μM genistein. (B) is a plot of variance as a function of mean-current amplitude for NIH/3T3-CFTR (.circle-solid.) and NIH/3T3-ΔF508 (.smallcircle.) cells stimulated with 10 μM forskolin. Lines are least square regressions.
Electrophysiology: CFTR channel currents were recorded at room temperature (~22° C.) with a patch-clamp amplifier (EPC-9, Heka Electronic), filtered at 100 Hz with a built-in three-pole Bessel filter, and stored on videotapes. Data were subsequently refiltered at 25 Hz with an eight-pole Bessel filter (Frequency Device, Havervill, Mass.) and captured onto a hard disk at a sampling rate of 50 Hz. […] Patch-clamp electrodes were made from Corning 7052 glass capillaries (Warner Instrument, Hammed, Conn.). The pipette resistance was usually 3-5 M.OMEGA., and the seal resistance was >20 G.OMEGA.. […]
Statistics: Mean currents and variance were estimated with Igor (Wavemetrics, Lake Oswego, Oreg.). […] Po was calculated from patches containing a single channel by dividing the open channel current amplitude with the mean-current amplitude. […] Calculated values are presented as means±SE. […]

ΔF508-CFTR = ΔF508-CFTR (Homo sapiens, UniProt P13569, DEL508-508); assay: Forskolin-dependent I- efflux, NIH/3T3-ΔF508 cells
Chain of ΔF508-CFTR (P13569 with tags, fused parts or gaps DEL508-508): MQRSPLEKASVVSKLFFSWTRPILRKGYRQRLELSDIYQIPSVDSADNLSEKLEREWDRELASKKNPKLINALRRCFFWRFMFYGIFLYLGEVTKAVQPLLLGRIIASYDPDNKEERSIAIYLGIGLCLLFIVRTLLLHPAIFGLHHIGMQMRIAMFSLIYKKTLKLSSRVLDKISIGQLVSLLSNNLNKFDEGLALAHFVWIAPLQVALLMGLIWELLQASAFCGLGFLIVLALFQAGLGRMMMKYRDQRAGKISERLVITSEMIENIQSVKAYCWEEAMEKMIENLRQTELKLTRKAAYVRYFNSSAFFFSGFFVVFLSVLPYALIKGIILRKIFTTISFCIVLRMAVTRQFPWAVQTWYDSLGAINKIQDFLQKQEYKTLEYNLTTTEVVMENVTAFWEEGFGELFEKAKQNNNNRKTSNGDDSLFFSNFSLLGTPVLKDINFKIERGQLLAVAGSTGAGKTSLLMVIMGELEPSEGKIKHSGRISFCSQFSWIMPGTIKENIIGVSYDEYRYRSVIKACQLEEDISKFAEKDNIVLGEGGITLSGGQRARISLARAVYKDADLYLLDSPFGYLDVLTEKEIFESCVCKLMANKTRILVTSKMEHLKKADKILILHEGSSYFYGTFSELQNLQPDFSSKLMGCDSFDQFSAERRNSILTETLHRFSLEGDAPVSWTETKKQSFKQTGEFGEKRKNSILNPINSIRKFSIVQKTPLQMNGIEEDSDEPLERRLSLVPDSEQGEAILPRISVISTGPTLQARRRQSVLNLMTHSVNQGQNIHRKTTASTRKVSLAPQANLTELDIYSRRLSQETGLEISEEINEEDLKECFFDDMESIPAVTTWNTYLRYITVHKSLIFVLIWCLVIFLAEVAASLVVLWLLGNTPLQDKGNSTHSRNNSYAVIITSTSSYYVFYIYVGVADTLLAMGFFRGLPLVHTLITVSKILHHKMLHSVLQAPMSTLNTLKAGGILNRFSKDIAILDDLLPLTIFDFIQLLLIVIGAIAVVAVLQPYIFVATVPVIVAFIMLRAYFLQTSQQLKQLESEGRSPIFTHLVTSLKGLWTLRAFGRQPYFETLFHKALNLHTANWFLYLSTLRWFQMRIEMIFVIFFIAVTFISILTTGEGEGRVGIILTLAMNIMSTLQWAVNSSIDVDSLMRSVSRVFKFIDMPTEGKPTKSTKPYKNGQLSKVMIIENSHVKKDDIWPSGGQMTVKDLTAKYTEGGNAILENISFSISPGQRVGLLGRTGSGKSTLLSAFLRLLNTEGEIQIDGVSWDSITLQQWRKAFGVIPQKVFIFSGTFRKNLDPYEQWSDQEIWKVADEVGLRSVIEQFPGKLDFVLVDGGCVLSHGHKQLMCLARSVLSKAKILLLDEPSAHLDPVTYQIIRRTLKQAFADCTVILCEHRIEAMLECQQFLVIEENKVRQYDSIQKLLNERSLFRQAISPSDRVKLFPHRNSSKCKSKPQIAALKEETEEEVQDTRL
Method: FIG. 1 is a graph representing the dose-responses relationship for forskolin-dependent I^- efflux. Peak rates of I^- efflux in the presence (closed symbols) or absence (open symbols) of 50 μM genistein were obtained with NIH/3T3-cystic fibrosis transmembrane conductance regulator (NIH/3T3-CFTR) (circles) and NTH/3T3-Δphenylalanine 508 (ΔF508) cells (triangles). NIH/3T3-CFTR cells are cultured at 37° C. NIH/3T3-Δ508 cells are cultured at 27° C. for 3 days prior to assay. Data are mean values±SE (n>5). Lines were fit by nonlinear least squares.
FIG. 2 is a bar graph showing the effects of stimulation of ΔF508-CFTR by forskolin and genistein. Peak rates of I^- efflux were measured with NIH/3T3-ΔF508cells that were cultured at 37° C. (open bars) or at 27° C. for 3 days prior to assay (filled bars). I^- efflux was assayed without added agonist as a control and with 1 μM forskolin (fsk), 50 μM genistein (gen), or 1 μM forskolin plus 50 μM genistein (fsk+gen). Error bars are SE for n>7.
Cell culture: NIH/3T3-CFTR, NIH/3T3-ΔF508, and NIH/3T3 mock cells (generous gifts from Dr. Richard Mulligan of Children's Hospital and Medical Center, Harvard Medical School) were grown as described [Bradbury et al., 1992] at 37° C. and 5% CO2 in Dulbecco's modified Eagle's medium-H21 supplemented with 10% new-born calf serum, 4 mM glutamine, 25 mM glucose, 100 μg/ml penicillin, 100 μg/ml streptomycin, and 50 μg/ml gentamicin. Cells were maintained in T75 flasks, passaged at 90-95% confluency, and split one to four. For measurements of I^- efflux and in vivo phosphorylation, cells were seeded onto 35-mm dishes at […]. For patch-clamp experiments, cells were grown on coverglass chips in 35-mm culture dishes. Media were replaced 24 hours after plating and thereafter every 48 hours. In all cases, media were changed on the day before I^- efflux studies, NIH/3T3-ΔF508 cells were transferred to 27° C. three days before use, and 1 day prior to study, media were supplemented with 5 mM butyrate. For patch-clamp studies, where a constant level of functional ΔF508-CFTR was not essential, NIH/3T3-ΔF508 cells were cultured at 27° C. for 2-6 days before use. Calu-3 cells were grown and maintained as described by Hunter [1995].
I^- efflux: I^- efflux was measured as described previously [Reenstra et al., 1996]. Briefly, cells were incubated for 30 minutes with 37° C. I^- efflux buffer [(in mM) 141 NaCl, 4 KCl, 1 KH2 PO4, 0.9 MgCl2, 1.7 CaCl2. 10 N-2hydroxyethylpiperazine-N'-2-ethanesulfonic acid (HEPES), 25 glucose pH 7.4] containing 5 μCi/ml carrier-free ^125 I^- (sodium salt). Extracellular ^125 I^- was removed by washing four times with efflux buffer, and the rate of loss of intracellular ^125 I^- was determined by replacing the bathing solution with 37° C. efflux buffer every 60 seconds for 12 minutes. Time-dependent rates of ^125 I^- efflux are calculated from R=ln(^125 I^-t1 /^125 I^-t2)/(t1-t2), where ^125 I^-t is the intracellular ^125 I^- at time t and t1 and t2 are successive time points. Dose-response curves were obtained from peak rates of 125I^- efflux by nonlinear least squares fitting to R=[Ro +Rmx ·([fsk]/K1/2)]/[1+([fsk]/K1/2)], where Ro and Rmx are the rates of ^125 I efflux at zero and infinite concentration of forskolin (fsk), and K1/2 is the concentration of agonist that gives a half-maximal change.
To investigate effects of genistein on CFTR activity, the rates of I^- efflux were measured from stably transfected NIH/3T3 cells expressing wt- and ΔF508-CFTR (NIH/33-CFTR and NIH/3T3-ΔF508 cells, respectively). […] To increase ΔF508-CFTR channel activity, NIH/3T3-ΔF508 cells were cultured at 27° C. for 3 days [Denning et al., 1992].

Chain of wt-CFTR (P13569 whole entry): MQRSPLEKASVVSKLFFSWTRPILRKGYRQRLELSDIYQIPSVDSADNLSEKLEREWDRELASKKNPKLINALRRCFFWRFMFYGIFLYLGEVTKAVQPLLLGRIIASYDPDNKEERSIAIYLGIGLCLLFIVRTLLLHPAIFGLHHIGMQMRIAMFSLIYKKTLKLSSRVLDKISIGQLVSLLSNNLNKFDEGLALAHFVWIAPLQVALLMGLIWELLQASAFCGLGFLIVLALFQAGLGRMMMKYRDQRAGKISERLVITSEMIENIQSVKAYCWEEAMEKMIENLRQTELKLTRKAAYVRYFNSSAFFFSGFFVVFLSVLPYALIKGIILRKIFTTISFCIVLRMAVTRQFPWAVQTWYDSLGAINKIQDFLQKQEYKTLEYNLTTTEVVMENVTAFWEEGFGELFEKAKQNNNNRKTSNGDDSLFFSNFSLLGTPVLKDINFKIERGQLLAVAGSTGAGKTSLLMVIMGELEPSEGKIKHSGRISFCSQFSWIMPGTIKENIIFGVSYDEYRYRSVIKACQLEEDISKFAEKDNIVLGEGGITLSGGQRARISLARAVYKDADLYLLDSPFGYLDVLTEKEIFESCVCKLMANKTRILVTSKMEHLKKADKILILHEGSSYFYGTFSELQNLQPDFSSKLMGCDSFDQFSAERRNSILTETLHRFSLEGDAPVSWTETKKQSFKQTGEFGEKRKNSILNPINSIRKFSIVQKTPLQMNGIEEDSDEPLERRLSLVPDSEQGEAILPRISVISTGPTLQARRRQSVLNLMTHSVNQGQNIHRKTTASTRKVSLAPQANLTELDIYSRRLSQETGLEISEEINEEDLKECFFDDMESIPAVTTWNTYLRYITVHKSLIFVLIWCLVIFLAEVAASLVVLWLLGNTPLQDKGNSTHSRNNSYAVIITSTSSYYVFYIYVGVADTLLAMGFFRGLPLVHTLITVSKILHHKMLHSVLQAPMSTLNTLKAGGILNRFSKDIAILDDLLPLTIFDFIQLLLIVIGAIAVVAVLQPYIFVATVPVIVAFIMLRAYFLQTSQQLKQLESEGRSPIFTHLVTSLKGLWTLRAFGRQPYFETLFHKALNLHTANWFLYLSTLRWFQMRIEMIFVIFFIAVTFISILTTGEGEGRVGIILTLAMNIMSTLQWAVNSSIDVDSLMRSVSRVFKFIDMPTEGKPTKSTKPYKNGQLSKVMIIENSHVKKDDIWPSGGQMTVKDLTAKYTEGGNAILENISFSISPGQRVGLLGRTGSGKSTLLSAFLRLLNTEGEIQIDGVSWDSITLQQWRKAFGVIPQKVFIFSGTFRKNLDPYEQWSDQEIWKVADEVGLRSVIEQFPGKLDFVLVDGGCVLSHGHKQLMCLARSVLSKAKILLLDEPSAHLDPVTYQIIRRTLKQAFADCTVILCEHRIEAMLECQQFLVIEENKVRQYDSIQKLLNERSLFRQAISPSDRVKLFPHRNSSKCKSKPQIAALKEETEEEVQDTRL

SMILES | slope of variance vs mean current (proportional to 1-Po) (wt-CFTR; 10 μM forskolin) [pA] | EC50 (ΔF508-CFTR) [nM] | stimulation of mutant ΔF508-CFTR (ΔF508-CFTR) | maximal fold induction (ΔF508-CFTR; mouse, read-out: maximal forskolin-dependent increase in I- efflux) | EC50 (ΔF508-CFTR; read-out: K1/2 of forskolin for I- efflux in presence of genistein, with 50 μM genistein, cells cultured at 27° C. for 3 days) [nM] | activation at 10 µM (ΔF508-CFTR; read-out: increase of I- efflux) [%] | slope of variance vs mean current (proportional to 1-Po) (wt-CFTR; 10 μM forskolin and 50 μM genistein) [pA] | increase of the maximal forskolin-dependent I- efflux response by genistein (ΔF508-CFTR; 50 μM genistein, cells cultured at 27° C. for 3 days) [fold]
C=C[C@@]1(C)CC(=O)[C@]2(O)[C@@]3(C)[C@@H](O)CCC(C)(C)[C@@H]3[C@H](O)[C@H](OC(C)=O)[C@@]2(C)O1 [forskolin] | 0.27±0.02 | 670 ± 260 | had little affect on mutant ΔF508-CFTR | 1.65 ± 0.08 | 16 ± 5 | < 15 | – | –
O=c1c(-c2ccc(O)cc2)coc2cc(O)cc(O)c12 [Genistein, 4',5,7-trihydroxyisoflavone] | – | – | – | – | – | – | 0.17±0.02 | 3.7±0.4
